The first test has as its system GUMC-403. As to the kind of experiment: viability at highest tested concentration (max response) relative to DMSO (% of DMSO control); higher = less cytotoxic. The note with it: library / dose series: MIPE library, 11-point 1:3 dilution; top concentration 46.1 µM; 48 h. Put shortly: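 Each figure stands for viability at the highest tested concentration compared with vehicle control. It was measured by CellTiter-Glo luminescence on a ViewLux after 48 h of exposure to 23 nL of pinned compound, with vehicle wells taken as 100% and empty wells as 0%. The cells were patient-derived GUMC-403 papilloma cells grown by conditional reprogramming, plated at 700/well in 5 μL F + Y medium in 1536-well plates.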
`COc1ccc(CCC(=O)c2c(O)cc(O[C@@H]3O[C@H](CO)[C@@H](O)[C@H](O)[C@H]3O[C@@H]3O[C@@H](C)[C@H](O)[C@@H](O)[C@H]3O)cc2O)cc1O`: the viability came to 57.9.
Regarding `CN1C(=O)\C(=C/C(=C1/NC2=C(F)C=C(I)C=C2)C(=O)NOCCO)C`, the viability worked out at 80.2.
In turn, `CN(C)NC(=O)CCC(=O)O` gave a viability of 101.
Still for that read-out and setting: as for `O=C1Nc2cc(Br)ccc2/C1=C1/Nc2ccccc2/C1=N\O`, the figure is 31.3; as for `O=C(CCCCCCC(=O)Nc1ccc([C@H]2O[C@@H](CSc3nc(-c4ccccc4)c(-c4ccccc4)o3)C[C@@H](c3ccc(CO)cc3)O2)cc1)NO`, 115; as for `Cc1ccc([S+](=O)([O-])NC(=O)NN2CC3CCCC3C2)cc1` (stereo unspecified), 109.
Regarding `CCN[C@H]1C[C@H](C)[S+](=O)([O-])c2sc([S+](N)(=O)[O-])cc21`, the viability was 103.
Compound `COc1c(O)cc2c(c1O)[C@@H]1O[C@H](CO)[C@@H](O)[C@H](O)[C@H]1OC2=O` gave a viability of 110.
For `C[N]1C2=C(SC(=C2)[S+](C)[O-])C\3=C1C(=O)N(CC4=CC(=CC=C4)N)\N=C3` (stereo unspecified), the viability came out at 106.
The same measure, in the same setting: as for `CC(=O)OC[C@@H]1O[C@H]([C@H](OC(C)=O)[C@@H]1OC(C)=O)N2\C=C/C(=O)NC2=O`, the figure is 110; as for `O=C1c2c(O)cc(O)cc2O[C@H](c2cc(O)c(O)c(O)c2)[C@H]1O`, 115.
As to `C/C(O)=C(\C#N)C(=O)Nc1ccc(C(F)(F)F)cc1`, the viability was 94.3.
Take `C/C=C(\C)C(=O)N[C@@H](c1ccccc1)[C@@H](O)C(=O)O[C@H]1C[C@@]2(O)[C@@H](OC(=O)c3ccccc3)[C@@H]3[C@]4(OC(C)=O)CO[C@@H]4C[C@H](O)[C@@]3(C)C(=O)[C@H](OC(C)=O)C(=C1C)C2(C)C`: the viability was 111.
Consider `Cn1cnc2c(F)c(Nc3ccc(Br)cc3F)c(C(=O)NOCCO)cc21`, for which the viability came out at 89.6.
In turn, `CCC(CCCC)COC(=O)C(\C#N)=C(\c1ccccc1)c2ccccc2` (stereo unspecified) displayed a viability of 113.
In turn, `NC(=O)c1ccc(-c2nc(-c3ccc4c(c3)OCO4)c(-c3ccccn3)[nH]2)cc1` had a viability of 126.
In turn, `CC/1=C(/N2[C@H](SC1)[C@H](NC(=O)[C@H](N)\C3=C\C\C=C/C3)C2=O)C(O)=O` registered a viability of 121.
The same measure, in the same setting: the value for `CC(C)[C@H](CO)Nc1nc(Nc2ccc(C(=O)O)c(Cl)c2)c2ncn(C(C)C)c2n1` was 75.1.
In turn, `CCN1\C=C(\C(O)=O)C(=O)C2=C1N=C(N3CCNCC3)C(=C2)F` had a viability of 95.7.
`OC[C@H]1O[C@H]([C@H](O)[C@@H]1O)N2\C=C/C(=O)NC2=O` displayed a viability of 121.
For the compound `CC1=C(CC(=O)O)c2cc(F)ccc2/C1=C\c1ccc([S+](C)[O-])cc1` (stereo unspecified), the viability worked out at 59.8.
Take `CC(C)(C#N)c1cc(Cn2cncn2)cc(C(C)(C)C#N)c1`: the viability stood at 116.
For `COc1cc([C@@H]2c3cc4c(cc3[C@@H](O)C3COC(=O)C32)OCO4)cc(OC)c1O` (stereo partly specified), the viability was 117.
Regarding `OCc1ccccc1O[C@@H]1O[C@H](CO)[C@@H](O)[C@H](O)[C@H]1O`, the viability is 151.
The compound `OC1CCC(Nc2ncc3nc(Nc4c(F)cc(F)cc4F)n([C@@H]4CCOC4)c3n2)CC1` (stereo partly specified) showed a viability of 95.5.
`O=C([O-])Cc1ccccc1Nc1c(Cl)cccc1Cl` yielded a viability of 104.
Regarding `C[C@H](NC(=O)c1sccc1OCc1ccc(Cl)cc1)c1ccccc1`, the viability came to 95.3.
`CCCCCOC(=O)NC\1=N\C(=O)N(\C=C1F)[C@@H]2O[C@H](C)[C@@H](O)[C@H]2O`: the viability came to 83.9.
In the case of `C[C@H]1C[C@@H]2[C@H](CC[C@@]3(C)[C@H]2CC[C@]3(OC(C)=O)C(C)=O)[C@@]\4(C)CCC(=O)\C=C14`, the viability came out at 147.
Consider `Cc1cn2c(-c3cn[nH]c3)cnc2c(Nc2ccc(C(=O)N3CCNCC3)cc2F)n1`, for which the viability worked out at 60.9.
In the case of `CCC[C@H](NC(=O)[C@@H]1[C@H]2CCC[C@H]2CN1C(=O)[C@@H](NC(=O)[C@@H](NC(=O)c1cnccn1)C1CCCCC1)C(C)(C)C)C(=O)C(=O)NC1CC1`, the viability came to 117.
With `N[C@@H](Cc1cc(I)c(Oc2cc(I)c(O)c(I)c2)c(I)c1)C(=O)O`, the viability was 123.
Take `C[C@@H]1CCN(C(=O)CC#N)C[C@@H]1N(C)c1ncnc2[nH]ccc12`: the viability stood at 79.1.
Turning to `CC(C)CC(=O)N[C@H](C(=O)N[C@H](C(=O)N[C@@H](CC(C)C)[C@@H](O)CC(=O)N[C@@H](C)C(=O)N[C@@H](CC(C)C)[C@@H](O)CC(=O)O)C(C)C)C(C)C`, the viability was 99.5.
As to `CC(C)n1nc(-c2ccc3oc(N)nc3c2)c2c(N)ncnc21`, the viability turned out to be 29.8.
Still for that read-out and setting: as for `OC(COC1=C2C(=O)\C=C(/OC2=CC=C1)C([O-])=O)COC3=C4C(=O)\C=C(/OC4=CC=C3)C([O-])=O`, the figure is 113; as for `CC(C)(O)CC(=O)NCCn1ccc2ncnc(Nc3ccc(Oc4cccc(C(F)(F)F)c4)c(Cl)c3)c21`, 71.7; as for `Cc1onc(-c2ccccc2Cl)c1C(=O)N[C@@H]1C(=O)N2[C@@H]1SC(C)(C)[C@@H]2C(=O)[O-]`, 111.
The same measure, in the same setting: as for `CCn1c(-c2nonc2N)nc2cnc(Oc3cccc(NC(=O)c4ccc(OCCN5CCOCC5)cc4)c3)cc21`, the figure is 65.4; as for `C[C@]1(CO)CN(c2cc(C(=O)Nc3ccc4c(c3)-c3c(c(C(N)=O)nn3-c3ccc(F)cc3)CC4)c(Cl)cn2)C[C@@]1(C)CO`, 64.7; as for `CC[C@]12\C=C/CN3CC[C@]4([C@@H](N(C)C5=CC(=C(C=C45)[C@]6(C[C@H]7C[C@H](CN(C7)CC8=C6[NH]C9=C8C=CC=C9)C(C)(F)F)C(=O)OC)OC)[C@](O)([C@@H]1OC(C)=O)C(=O)OC)[C@H]23`, 85.
Still for that read-out and setting: as for `CCC(CC)[C@H](NC(C)=O)[C@@H]1[C@H](O)[C@@H](C(=O)O)C[C@H]1NC(=N)N`, the figure is 106; as for `C[C@]12CC[C@H]3[C@@H](CC(=C)\C4=C\C(=O)\C=C/[C@]34C)[C@@H]1CCC2=O`, 112; as for `N#Cc1c(NC(=O)c2cccc3ccccc23)sc2c1CCCC2`, 109.
In the case of `CC(N)C12CC3CC(CC(C3)C1)C2` (stereo unspecified), the viability turned out to be 104.
Regarding `CCCCc1oc2ccccc2c1C(=O)c1cc(I)c(OCCN(CC)CC)c(I)c1`, the viability turned out to be 95.4.
`CC[C@]1(O)C[C@@H]2CN(CCc3c([nH]c4ccccc34)[C@@](C(=O)OC)(c3cc4c(cc3OC)N(C)[C@H]3[C@@](O)(C(N)=O)[C@H](O)[C@]5(CC)C=CCN6CC[C@]43[C@@H]65)C2)C1`: the viability turned out to be 114.
For `NCCCCCC(=O)O`, the viability is 130.
`Cl.Cl.Cl.O[C@@H](COc1cccc2ncccc12)CN1CCN([C@@H]2c3ccccc3[C@@H]3[C@H](c4ccccc42)C3(F)F)CC1` returned a viability of 70.9.
Regarding `CCc1cccc(CC)c1NC(=O)N1Cc2[nH]nc(NC(=O)c3ccc(N4CCN(C)CC4)cc3)c2C1`, the viability turned out to be 87.2.
Turning to `O=C(O)/C=C/c1ccc(Cn2ccnc2)cc1`, the viability was determined as 124.
`CN1CCN(CCCN2c3ccccc3Sc3ccc(Cl)cc32)CC1.O=C(O)/C=C\C(=O)O.O=C(O)/C=C\C(=O)O` returned a viability of 95.8.
As for `C[N]1C=NC=C1[C@@](N)(C2=CC=C(Cl)C=C2)C3=CC=C4N(C)C(=O)\C=C(\C5=CC=CC(=C5)Cl)C4=C3`, the viability stood at 96.3.
On to `Nc1nc(N)c(N=O)c(OCC2CCCCC2)n1`, for which the viability came to 88.3.
On to `O=c1cc(O)c(Cl)c[nH]1`, for which the viability was found to be 106.
Still for that read-out and setting: as for `COc1cc([C@H]2Oc3cc([C@H]4Oc5cc(O)cc(O)c5C(=O)[C@@H]4O)ccc3O[C@@H]2CO)ccc1O`, the figure is 83.9; as for `C/C=C(/C(=C/C)c1ccc(O)cc1)c1ccc(O)cc1`, 89.2.
The same measure, in the same setting: as for `O=C(c1ccccc1)c1ccc2n1CCC2C(=O)O` (stereo unspecified), the figure is 75.8.
On to `NC(=O)c1ccc2[nH]ccc2c1`, for which the viability was found to be 122.
In turn, `Oc1ccc2ccccc2c1SSc1c(O)ccc2ccccc12` gave a viability of 129.
Compound `CCCCCCCCCCCC/1=C(O)/C(=O)/C=C(O)\C1=O` gave a viability of 89.
Regarding `OC1=CC=C(C=C1)\C2=C\OC3=C(C(=CC(=C3)O)O)C2=O`, the viability was 77.6.
As for `CC(=O)O[C@@]12CO[C@@H]1C[C@H](O)[C@]3(C)[C@@H]2[C@H](OC(=O)C4=CC=CC=C4)[C@]5(O)C[C@H](OC(=O)C(O)[C@@H](NC(=O)OC(C)(C)C)C6=CC=CC=C6)C(=C(/[C@@H](O)C3=O)C5(C)C)/C` (stereo partly specified), the viability came out at 103.
Consider `NC\1=N\C(=O)N(\C=C1)[C@@H]2O[C@H](CO)[C@@H](O)[C@@H]2O`, for which the viability was found to be 113.
`CC(O)C1C2C(C)\C(=C(/N2C1=O)C(O)=O)SC3CNC(C3)C(=O)N(C)C` (stereo unspecified) registered a viability of 115.
With `COc1ccc(Cc2nccc3cc(OC)c(OC)cc23)cc1OC`, the viability worked out at 109.
Same read-out and setting: the value for `CC/1=C/C(=O)N(O)/C(=C1)C2CCCCC2` was 27.2; that for `CN1\C(=C(\O)C2=CC=CC=C2[S+]1([O-])=O)C(=O)NC3=NC=C(C)S3` was 121.
Still for that read-out and setting: as for `CCOc1cc(CC(=O)N[C@@H](CC(C)C)c2ccccc2N2CCCCC2)ccc1C(=O)O`, the figure is 143.
On to `COc1ccc(C(=O)c2c(C)n(CCN3CCOCC3)c3cc(I)ccc23)cc1`, for which the viability came out at 143.

The test is the same for the next values; noted with them: library / dose series: MIPE library, 11-point 1:3 dilution; top concentration 92.2 µM; 48 h.
The compound `S=C(NCc1ccc2c(c1)OCO2)N1CCN(c2ncnc3c2oc2ccccc23)CC1` gave a viability of 100.
